The record followed here is ChEMBL document CHEMBL2375331, “Daphnane-type diterpenes with inhibitory activities against human cancer cell lines from Daphne genkwa” (Bioorg Med Chem Lett, 2013).

What is called IC50 is the concentration at which inhibition is half-maximal.

What all share (type): functional, cell-based
In one assay the test system is HT-1080. The experiment in a line: Cytotoxicity against human HT1080 cells after 48 hrs by MTT assay. As to conditions: HT-1080, 48 h. (In general: Tetrazolium assays rely on reduction of a dye to a coloured formazan, in cell work by metabolically active cells.)
In a further assay the test system is HCT-116. The experiment in a line: Cytotoxicity against human HCT116 cells after 48 hrs by MTT assay. The following applies: HCT-116, 48 h.
The next assay concerns MCF7. The assay can be described thus: Cytotoxicity against human MCF7 cells after 48 hrs by MTT assay. The following applies: MCF7, 48 h.
For a further assay, the system named is HL-60. The assay can be described thus: Cytotoxicity against human HL60 cells after 48 hrs by MTT assay. As to conditions: HL-60, 48 h.
The test system of the next assay is HeLa. The assay can be described thus: Cytotoxicity against human HeLa cells after 48 hrs by MTT assay.
Assay [1] in a line: Cytotoxicity against human A375-S2 cells after 48 hrs by MTT assay. As to conditions: A375-S2, 48 h.
In another assay the test system is K562. The experiment in a line: Cytotoxicity against human K562 cells after 48 hrs by MTT assay. As to conditions: K562, 48 h.
The test system of a further assay is A549. The assay can be described thus: Cytotoxicity against human A549 cells after 48 hrs by MTT assay. The following applies: A549, 48 h.
The next assay relates to U-937. The experiment in a line: Cytotoxicity against human U937 cells after 48 hrs by MTT assay. As to conditions: U-937, 48 h.
The test system of another assay is HepG2. The assay can be described thus: Cytotoxicity against human HepG2 cells after 48 hrs by MTT assay. The following applies: HepG2, 48 h.

Bounds are passed on as bounds.

Consider `C=C(C)[C@]12C[C@@H](C)[C@@]34OC5(CCCCCCC[C@H](C)[C@H]6[C@H](C)[C@H](OC(=O)c7ccccc7)[C@@](O)([C@H](O)[C@@]7(CO)O[C@H]7[C@H]3[C@H]1O5)[C@@H]64)O2` [PIMELEA FACTOR P2], for which the IC50 in the assay with HT-1080 was 13.2 µM; in the assay on HCT-116 it was 19.6 µM; in the assay with MCF7, over 50 µM; in the assay on HL-60, 17.9 µM; in the assay on HeLa, 18.3 µM; in [1] it was 25.7 µM. For the same compound, the IC50 with K562 is 25.2 µM; with A549, 17 µM; in the assay with U-937 it was 16.7 µM; with HepG2, 19.1 µM.
For the compound `C=C(C)[C@@]1(O)[C@H](OC(=O)/C=C/C=C/CCCCC)[C@@H]2[C@@H]3O[C@]3(CO)[C@@H](O)[C@]3(O)C(=O)C(C)=C[C@H]3[C@@]2(O)[C@H](C)[C@H]1OC(=O)c1ccccc1` [YUANHUAOATE E], the half-maximal inhibitory concentration (IC50) in the assay with HT-1080 was 18.4 µM; in the assay with HCT-116, 16.4 µM; with MCF7 it was over 50 µM; with HL-60 it was 18.5 µM; in the assay on HeLa, 16.7 µM; in assay [1] it was 26.5 µM. Moreover, the IC50 was 29 µM in the assay on K562, 13.3 µM in the assay with A549, 11.6 µM in the assay with U-937 and 11.1 µM in the assay on HepG2.
Consider `C=C(C)[C@@]12O[C@@]3(c4ccccc4)O[C@@H]1[C@@H]1[C@@H]4O[C@]4(CO)[C@@H](O)[C@]4(O)C(=O)C(C)=C[C@H]4[C@@]1(O3)[C@H](C)[C@H]2OC(=O)c1ccccc1`, for which the IC50 was under 0.1 µM with HT-1080; 29.3 µM in the assay on HCT-116; 2.36 µM with MCF7; 24.4 µM in the assay on HL-60; 19.1 µM with HeLa; 16.9 µM in assay [1]. Also, the IC50 in the assay with K562 was 22.5 µM; in the assay with A549, 19.1 µM; with U-937 it was 13.2 µM; in the assay with HepG2, 24.1 µM.
Consider `C=C(C)[C@]12C[C@@H](C)[C@@]34OC(c5ccccc5)(O[C@@H]1[C@@H]3[C@@H]1O[C@]1(CO)[C@@H](O)[C@@]1(O)[C@H]4C[C@H](C)[C@@H]1O)O2` [ORTHOBENZOATE], for which the half-inhibitory concentration (IC50) in the assay on HT-1080 is 24.5 µM; in the assay with HCT-116, 49.9 µM; with MCF7 it was 12.4 µM; in the assay on HL-60 it was over 50 µM; in the assay on HeLa, 31.7 µM; in [1], 47.2 µM. For the same compound, the IC50 in the assay with K562 was 42.3 µM; in the assay on A549, over 50 µM; with U-937, over 50 µM; in the assay with HepG2, 48.9 µM.
In the case of `C=C(C)[C@@]12OC3(/C=C/C=C/CCCCC)O[C@@H]1[C@@H]1[C@@H]4O[C@]4(CO)[C@@H](O)[C@]4(O)C(=O)C(C)=C[C@H]4[C@@]1(O3)[C@H](C)[C@H]2OC(=O)CC`, the IC50 was 28.8 µM in the assay with HT-1080; 46.8 µM in the assay on HCT-116; over 50 µM in the assay on MCF7; 22.7 µM in the assay with HL-60; 25.5 µM with HeLa; over 50 µM in [1]. In addition, the IC50 with K562 was determined as 29.4 µM; in the assay on A549 it was 18.8 µM; in the assay on U-937 it was 27.4 µM; in the assay on HepG2, 13.5 µM.
As for `C=C(C)[C@@]12OC3(/C=C/C=C\CCCCC)O[C@@H]1[C@@H]1[C@@H]4O[C@]4(CO)[C@@H](O)[C@]4(O)C(=O)C(C)=C[C@H]4[C@@]1(O3)[C@H](C)[C@H]2OC(C)=O` [ISOYUANHUADINE], the concentration for half-maximal inhibition (IC50) in the assay on HT-1080 was 14.9 µM; in the assay with HCT-116, 32.3 µM; in the assay on MCF7, 23.4 µM; in the assay with HL-60 it was 17.7 µM; in the assay on HeLa it was 0.64 µM; in assay [1] it was 21.5 µM. The 50% inhibitory concentration (IC50) in the assay with K562 was 17.5 µM; with A549 it was 24.1 µM; in the assay with U-937, 17.4 µM; in the assay with HepG2 it was 30 µM.
As to `C=C(C)[C@]12C[C@@H](C)[C@@]34OC5(CCCCCCC[C@@H](C)[C@H]6[C@H](C)[C@H](O)[C@@](O)([C@H](O)[C@@](O)(COC(=O)c7ccccc7)[C@@H](O)[C@H]3[C@H]1O5)[C@@H]64)O2`, the IC50 is 7.71 µM with HT-1080; over 50 µM in the assay with HCT-116; over 50 µM in the assay on MCF7; over 50 µM in the assay with HL-60; 25.2 µM in the assay on HeLa; 28.6 µM in assay [1]. Also, the half-inhibitory concentration (IC50) with K562 was over 50 µM; with A549 it was 45 µM; in the assay with U-937 it was over 50 µM; in the assay on HepG2 it was 28.6 µM.
On to `C=C(C)[C@]12C[C@@H](C)[C@@]34O[C@@]5(CCCCCCC[C@@H](C)[C@H]6[C@H](C)[C@H](O)[C@@](O)([C@H](O)[C@@]7(COC(=O)c8ccccc8)O[C@H]7[C@H]3[C@H]1O5)[C@@H]64)O2`, for which the IC50 in the assay with HT-1080 is 9.56 µM; in the assay with HCT-116, 28.9 µM; in the assay with MCF7, 19.9 µM; with HL-60, 18.1 µM; in the assay on HeLa it was over 50 µM; in assay [1], 29.4 µM. The IC50 turned out to be 18.7 µM in the assay with K562, 18.8 µM in the assay with A549, 16.5 µM with U-937 and 11.3 µM in the assay with HepG2.
